# Like-named read-outs stand apart in the source and are kept apart here.
# Assays:
# Assay type in all cases: in vivo
# [1] = test system: Surinam grass (Brachiaria decumbens); assay: Test B pre/postemergence; details: Urochloa decumbens; for pest or weed control at 125 g/ha: 125 g ai/ha; for pest or weed control at 500 g/ha: 500 g ai/ha
# Summary of the method: (§1)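 Compounds in non-phytotoxic solvent with surfactant applied preemergence to planted seeds or postemergence to plants 2 to 18 cm tall (1- to 4-leaf stage). Greenhouse 13 to 15 days, then visual rating against controls on a 0 to 100 scale (100 = complete control).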
# [2] = test system: barnyardgrass (Echinochloa crus-galli); assay: Test B pre/postemergence; details: Echinochloa crus-galli; for pest or weed control at 125 g/ha: 125 g ai/ha; for pest or weed control at 500 g/ha: 500 g ai/ha
# Summary of the method: as §1
# [3] = test system: cocklebur (Xanthium strumarium); assay: Test B pre/postemergence; details: Xanthium strumarium; for pest or weed control at 125 g/ha: 125 g ai/ha; for pest or weed control at 500 g/ha: 500 g ai/ha
# Summary of the method: as §1
# corn (Zea mays) = assay: Test B pre/postemergence; details: Zea mays
# Summary of the method: as §1
# [4] = test system: crabgrass (Digitaria sanguinalis); assay: Test B pre/postemergence; details: Digitaria sanguinalis; for pest or weed control at 125 g/ha: 125 g ai/ha; for pest or weed control at 500 g/ha: 500 g ai/ha
# Summary of the method: as §1
# [5] = test system: giant foxtail (Setaria faberii); assay: Test B pre/postemergence; details: Setaria faberi; for pest or weed control at 125 g/ha: 125 g ai/ha; for pest or weed control at 500 g/ha: 500 g ai/ha
# Summary of the method: as §1
# [6] = test system: lambsquarters (Chenopodium album); assay: Test B pre/postemergence; details: Chenopodium album; for pest or weed control at 125 g/ha: 125 g ai/ha; for pest or weed control at 500 g/ha: 500 g ai/ha
# Summary of the method: as §1
# [7] = test system: morningglory (Ipomoea coccinea); assay: Test B pre/postemergence; details: Ipomoea; for pest or weed control at 125 g/ha: 125 g ai/ha; for pest or weed control at 500 g/ha: 500 g ai/ha
# Summary of the method: as §1
# [8] = test system: pigweed (Amaranthus retroflexus); assay: Test B pre/postemergence; details: Amaranthus retroflexus; for pest or weed control at 125 g/ha: 125 g ai/ha; for pest or weed control at 500 g/ha: 500 g ai/ha
# Summary of the method: as §1
# [9] = test system: velvetleaf (Abutilon theophrasti); assay: Test B pre/postemergence; details: Abutilon theophrasti; for pest or weed control at 125 g/ha: 125 g ai/ha; for pest or weed control at 500 g/ha: 500 g ai/ha
# Summary of the method: as §1
# [10] = test system: wheat (Triticum aestivum); assay: Test B pre/postemergence; details: Triticum aestivum; for plant injury at 125 g/ha: 125 g ai/ha; for plant injury at 500 g/ha: 500 g ai/ha
# Summary of the method: as §1
# [11] = test system: blackgrass (Alopecurus myosuroides); assay: Test B postemergence; details: Alopecurus myosuroides, post-emergence
# Summary of the method: as §1
# wild oat (Avena fatua) = assay: Test B postemergence; details: Avena fatua, post-emergence
# Summary of the method: as §1
# [12] = test system: barnyardgrass (Echinochloa crus-galli); assay: Test B flooded paddy test; details: Echinochloa crus-galli, Flood, 1000 g ai/ha; scale 0 (no effect) to 100 (complete control); read-out: Plant response rating, Barnyardgrass
# Summary of the method: (§2)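 Rice, umbrella sedge, duck salad and barnyardgrass grown to 2-leaf stage under flooded paddy conditions and treated with formulated test chemicals. Kept in greenhouse 13–15 days, then visually rated against untreated controls on a 0–100 scale (0 no effect, 100 complete control).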
# [13] = test system: duck salad (Heteranthera limosa); assay: Test B flooded paddy test; details: Heteranthera limosa, Flood, 1000 g ai/ha; scale 0 to 100; read-out: Plant response rating, Ducksalad
# Summary of the method: as §2
# rice (Oryza sativa) = assay: Test B flooded paddy test; details: Oryza sativa, Flood, 1000 g ai/ha; scale 0 to 100; read-out: Plant response rating, Rice
# Summary of the method: as §2
# [14] = test system: umbrella sedge (Cyperus difformis); assay: Test B flooded paddy test; details: Cyperus difformis, Flood, 1000 g ai/ha; scale 0 to 100; read-out: Plant response rating, Sedge, Umbrella
# Summary of the method: as §2
smiles,measurement,setting,value
COC(=O)c1nc(-c2ccccc2)nc(N)c1Br [Compound 23],pest or weed control at 125 g/ha,"[1]; post-emergence, Postemergence, scale 0 to 100 (0 no effect, 100 complete control), read-out: Surinam Grass plant response rating",0%
same,pest or weed control at 500 g/ha,"[1]; post-emergence, Postemergence, scale 0 to 100, read-out: Plant response rating, Surinam Grass",10%
same,pest or weed control at 125 g/ha,"[1]; pre-emergence, Preemergence, scale 0 to 100 (0 no effect, 100 complete control), read-out: Plant response rating, Surinam Grass",0%
same,pest or weed control at 500 g/ha,"[1]; pre-emergence, Preemergence, scale 0 to 100 (0 no effect, 100 complete control), read-out: Surinam Grass plant response rating",0%
same,pest or weed control at 125 g/ha,"[2]; post-emergence, Postemergence, scale 0 to 100 (0 no effect, 100 complete control), read-out: Barnyardgrass plant response rating",0%
same,pest or weed control at 500 g/ha,"[2]; post-emergence, Postemergence, scale 0 to 100, read-out: Plant response rating, Barnyardgrass",0%
same,pest or weed control at 125 g/ha,"[2]; pre-emergence, Preemergence, scale 0 to 100 (0 no effect, 100 complete control), read-out: Plant response rating, Barnyardgrass",0%
same,pest or weed control at 500 g/ha,"[2]; pre-emergence, Preemergence, scale 0 to 100 (0 no effect, 100 complete control), read-out: Barnyardgrass plant response rating",0%
same,pest or weed control at 125 g/ha,"[3]; post-emergence, Postemergence, scale 0 to 100 (0 no effect, 100 complete control), read-out: Cocklebur plant response rating",30%
same,pest or weed control at 500 g/ha,"[3]; post-emergence, Postemergence, scale 0 to 100, read-out: Plant response rating, Cocklebur",90%
same,pest or weed control at 125 g/ha,"[3]; pre-emergence, Preemergence, scale 0 to 100 (0 no effect, 100 complete control), read-out: Plant response rating, Cocklebur",0%
same,pest or weed control at 500 g/ha,"[3]; pre-emergence, Preemergence, scale 0 to 100 (0 no effect, 100 complete control), read-out: Cocklebur plant response rating",10%
same,plant injury at 125 g/ha,"corn (Zea mays); post-emergence, Postemergence, 125 g ai/ha, scale 0 to 100 (0 no effect, 100 complete control), read-out: Corn plant response rating",0%
same,"Corn plant response rating (crop injury, 0 = no effect, 100 = complete kill) at 500 g/ha","corn (Zea mays); post-emergence, Postemergence, 500 g ai/ha, scale 0 to 100",0%
same,"Corn plant response rating (crop injury, 0 = no effect, 100 = complete kill) at 125 g/ha","corn (Zea mays); pre-emergence, Preemergence, 125 g ai/ha, scale 0 to 100 (0 no effect, 100 complete control)",0%
same,plant injury at 500 g/ha,"corn (Zea mays); pre-emergence, Preemergence, 500 g ai/ha, scale 0 to 100 (0 no effect, 100 complete control), read-out: Corn plant response rating",0%
same,pest or weed control at 125 g/ha,"[4]; post-emergence, Postemergence, scale 0 to 100 (0 no effect, 100 complete control), read-out: Crabgrass plant response rating",0%
same,pest or weed control at 500 g/ha,"[4]; post-emergence, Postemergence, scale 0 to 100, read-out: Plant response rating, Crabgrass",0%
same,pest or weed control at 125 g/ha,"[4]; pre-emergence, Preemergence, scale 0 to 100 (0 no effect, 100 complete control), read-out: Plant response rating, Crabgrass",0%
same,pest or weed control at 500 g/ha,"[4]; pre-emergence, Preemergence, scale 0 to 100 (0 no effect, 100 complete control), read-out: Crabgrass plant response rating",0%
same,pest or weed control at 125 g/ha,"[5]; post-emergence, Postemergence, scale 0 to 100 (0 no effect, 100 complete control), read-out: Foxtail, Giant plant response rating",0%
same,pest or weed control at 500 g/ha,"[5]; post-emergence, Postemergence, scale 0 to 100, read-out: Plant response rating, Foxtail, Giant",10%
same,pest or weed control at 125 g/ha,"[5]; pre-emergence, Preemergence, scale 0 to 100 (0 no effect, 100 complete control), read-out: Plant response rating, Foxtail, Giant",0%
same,pest or weed control at 500 g/ha,"[5]; pre-emergence, Preemergence, scale 0 to 100 (0 no effect, 100 complete control), read-out: Foxtail, Giant plant response rating",0%
same,pest or weed control at 125 g/ha,"[6]; post-emergence, Postemergence, scale 0 to 100 (0 no effect, 100 complete control), read-out: Lambsquarters plant response rating",70%
same,pest or weed control at 500 g/ha,"[6]; post-emergence, Postemergence, scale 0 to 100, read-out: Plant response rating, Lambsquarters",80%
same,pest or weed control at 125 g/ha,"[6]; pre-emergence, Preemergence, scale 0 to 100 (0 no effect, 100 complete control), read-out: Plant response rating, Lambsquarters",0%
same,pest or weed control at 500 g/ha,"[6]; pre-emergence, Preemergence, scale 0 to 100 (0 no effect, 100 complete control), read-out: Lambsquarters plant response rating",30%
same,pest or weed control at 125 g/ha,"[7]; post-emergence, Postemergence, scale 0 to 100 (0 no effect, 100 complete control), read-out: Morningglory plant response rating",40%
same,pest or weed control at 500 g/ha,"[7]; post-emergence, Postemergence, scale 0 to 100, read-out: Plant response rating, Morningglory",70%
same,pest or weed control at 125 g/ha,"[7]; pre-emergence, Preemergence, scale 0 to 100 (0 no effect, 100 complete control), read-out: Plant response rating, Morningglory",0%
same,pest or weed control at 500 g/ha,"[7]; pre-emergence, Preemergence, scale 0 to 100 (0 no effect, 100 complete control), read-out: Morningglory plant response rating",10%
same,pest or weed control at 125 g/ha,"[8]; post-emergence, Postemergence, scale 0 to 100 (0 no effect, 100 complete control), read-out: Pigweed plant response rating",30%
same,pest or weed control at 500 g/ha,"[8]; post-emergence, Postemergence, scale 0 to 100, read-out: Plant response rating, Pigweed",70%
same,pest or weed control at 125 g/ha,"[8]; pre-emergence, Preemergence, scale 0 to 100 (0 no effect, 100 complete control), read-out: Plant response rating, Pigweed",0%
same,pest or weed control at 500 g/ha,"[8]; pre-emergence, Preemergence, scale 0 to 100 (0 no effect, 100 complete control), read-out: Pigweed plant response rating",20%
same,pest or weed control at 125 g/ha,"[9]; post-emergence, Postemergence, scale 0 to 100 (0 no effect, 100 complete control), read-out: Velvetleaf plant response rating",40%
same,pest or weed control at 500 g/ha,"[9]; post-emergence, Postemergence, scale 0 to 100, read-out: Plant response rating, Velvetleaf",70%
same,pest or weed control at 125 g/ha,"[9]; pre-emergence, Preemergence, scale 0 to 100 (0 no effect, 100 complete control), read-out: Plant response rating, Velvetleaf",0%
same,pest or weed control at 500 g/ha,"[9]; pre-emergence, Preemergence, scale 0 to 100 (0 no effect, 100 complete control), read-out: Velvetleaf plant response rating",20%
same,plant injury at 125 g/ha,"[10]; post-emergence, Postemergence, scale 0 to 100 (0 no effect, 100 complete control), read-out: Wheat plant response rating",0%
same,plant injury at 500 g/ha,"[10]; post-emergence, Postemergence, scale 0 to 100, read-out: Plant response rating, Wheat",20%
same,plant injury at 125 g/ha,"[10]; pre-emergence, Preemergence, scale 0 to 100 (0 no effect, 100 complete control), read-out: Plant response rating, Wheat",0%
same,plant injury at 500 g/ha,"[10]; pre-emergence, Preemergence, scale 0 to 100 (0 no effect, 100 complete control), read-out: Wheat plant response rating",0%
same,pest or weed control at 125 g/ha,"[11]; 125 g ai/ha, scale 0 to 100 (0 no effect, 100 complete control), read-out: Blackgrass plant response rating",0%
same,pest or weed control at 500 g/ha,"[11]; 500 g ai/ha, scale 0 to 100, read-out: Plant response rating, Blackgrass",10%
same,pest or weed control at 125 g/ha,"wild oat (Avena fatua); 125 g ai/ha, scale 0 to 100 (0 no effect, 100 complete control), read-out: Oat, Wild plant response rating",10%
same,pest or weed control at 500 g/ha,"wild oat (Avena fatua); 500 g ai/ha, scale 0 to 100, read-out: Plant response rating, Oat, Wild",10%
same,pest or weed control at 1000 g/ha,[12],0%
same,pest or weed control at 1000 g/ha,[13],30%
same,plant injury at 1000 g/ha,rice (Oryza sativa),0%
same,pest or weed control at 1000 g/ha,[14],0%

# — patent publication US8802597B2, “Herbicidal pyrimidines” (E I du Pont de Nemours and Company, priority 2003, dated 2014)
